Laboratory results taken from paper PMC5322338 (Scientific Reports, 2017).

Assays:
[1] = tested on: Human neutrophil elastase (HNE); test: neutrophil elastase in 0.1 M HEPES and 0.5 M NaCl at pH 7.5; conditions: 37 °C, up to 30 min
MMP2 = MMP2 in 0.1 M Tris-HCl, 0.1 M NaCl, 10 mM CaCl2, pH 7.5; conditions: 37 °C, up to 30 min
MMP9 = MMP9 in 0.1 M Tris-HCl, 0.1 M NaCl, 10 mM CaCl2, pH 7.5; conditions: 37 °C, up to 30 min
legumain = legumain in 40 mM citric acid, 1 mM EDTA, 120 mM Na2HPO4, 10 mM DTT, pH 5.8; conditions: human, 37 °C, up to 30 min
caspase-7 [2] = test: caspase-7 in caspase buffer, IQF library screening and kinetics; conditions: human, 37 °C, up to 30 min
caspase-3 [3] = test: caspase-3 in caspase buffer, IQF library screening and kinetics; conditions: human, 37 °C, up to 30 min
caspase-6 = caspase-6 in caspase buffer, IQF library screening; conditions: human, 37 °C, up to 30 min
[4] = Fluorescence quantum yield; conditions: quenched substrates versus free fluorophores
Source text: We determined the absorption spectrum of the DNP group and the emission spectrum of the ACC fluorophore in four different assay buffers. […] To determine whether this spectral overlap is sufficient for ACC fluorophore quenching, we synthesized ACC-GDEVD-OH, a caspase substrate cleavage product, and compared its fluorescence with that of the full-length substrate ACC-GDEVD*GVK(DNP)D at various concentrations (Fig. 3).

caspase-8 = caspase-8 in caspase buffer supplemented with 1 M sodium citrate; conditions: human, 37 °C, up to 30 min
caspase-7 [5] = test: caspase-7 in 20 mM Pipes, 0.1 M NaCl, 1 mM EDTA, 10 mM DTT, 10% (w/v) sucrose, pH 7.2 to 7.4; conditions: human, 37 °C, up to 30 min
caspase-3 [6] = test: caspase-3 in 20 mM Pipes, 0.1 M NaCl, 1 mM EDTA, 10 mM DTT, 10% (w/v) sucrose, pH 7.2 to 7.4; conditions: human, 37 °C, up to 30 min
Trypsin = test: trypsin in 0.05 M Tris, 0.15 M NaCl, 0.01% Triton X100, pH 7.6; conditions: 37 °C, up to 30 min

In the case of MCA-GAEPV*SLK(dnp)L-NH2, the cleaved bond [1] is reported as “V-S”.

In the case of ACC-GPLG*LK(dnp)AR-NH2, the cleaved bond (MMP2) is reported as “G-L” and the cleaved bond (MMP9) is reported as “G-L”.

In the case of ACC-GPTN*KVK(dnp)R-NH2, the cleaved bond (legumain) is reported as “N-K”.

For ACC-GDEVE/XKK(dnp)G-NH2 [DEVE/G], the cleaved bond (caspase-7 [2]) was “E-G”, the cleaved bond (caspase-3 [3]) was “E-G” and the cleaved bond (caspase-6) was “E-Gly”.

With MCA-GPTN*KVK(dnp)R-NH2 the cleaved bond (legumain) was “N-K”.

In the case of ACC-GAEPV*SLK(dnp)L-NH2, the cleaved bond [1] is reported as “V-S”.

In the case of `NC(=O)Cc1cc(=O)oc2cc(N)ccc12` [ACC, 7-amino-4-carbamoylmethylcoumarin], the “fluorescence quantum yield (ϕF)” value [4] is reported as 0.861.

For `COc1ccc2c(CC(=O)O)cc(=O)oc2c1` [MCA, 7-methoxy-coumarin-4-yl acetic acid], the “fluorescence quantum yield (ϕF)” value [4] was 0.718.

For ACC-GDEVD*GVK(dnp)D-NH2, the cleaved bond (caspase-8) was “D-G”, the cleaved bond (caspase-7 [5]) was “D-G” and the cleaved bond (caspase-3 [6]) was “D-G”.

With MCA-GPLG*LK(dnp)AR-NH2 the cleaved bond (MMP2) was “G-L” and the cleaved bond (MMP9) was “G-L”.

With “ACC-GGLS(P1)*IVK(DNP)G-NH2 [ACC-GGLS(P1)*IVK(DNP)G-NH2, P1 = Lysine]” the cleaved bond (Trypsin) was “Lysine-I”.

With ACC-GDEVE/XKK(dnp)G-NH2 [DEVE/A] the cleaved bond (caspase-7 [2]) was “E-A”, the cleaved bond (caspase-3 [3]) was “E-A” and the cleaved bond (caspase-6) was “E-Ala”.

With ACC-GGLS(P1)*IVK(DNP)G-NH2 the not cleaved (Trypsin) was “No measurable hydrolysis”.

With MCA-GDEVD*GVK(dnp)D-NH2 the cleaved bond (caspase-8) was “D-G”, the cleaved bond (caspase-7 [5]) was “D-G” and the cleaved bond (caspase-3 [6]) was “D-G”.
